Key:
Type in all cases: cell-based, human
[1] = test system: OA articular chondrocytes; test: OA chondrocyte phenotype gene expression screening of BMP-7 peptides (RT-qPCR); parameters: key to IL-6 / ADAMTS5 / COL10A / BAPX1/NKX3.2 / ALP / RUNX2: —: [-] denotes the absence of a significant effect or a significantly decreased expression of chondrogenic marker genes BAPX1/NKX3.2, or a significantly increased expression of OA phenotypic markers IL-6, ADAMTS5, COL10A, ALP and RUNX2 in OA articular chondrocytes, in comparison to untreated OA articular chondrocytes; conditions: for ADAMTS5 / ALP / BAPX1/NKX3.2 / COL10A / IL-6 / RUNX2: Table 1, gene expression in OA articular chondrocytes vs untreated; for suppression of the OA chondrocyte phenotype: independent of the tested concentration (1000, 100, 10 and 1 nM were tested); for activity in the assays as employed herein (table 2): peptides with additional amino acid N-terminal of position 100
Method: (§1) FIG. 2: The action of 20-mer peptides (10 nM) of SEQ ID NO: 2-17 (peptides with 1 or 2 amino acids intervals (18-19 amino acid overlap)) and a random peptide with a sequence according to SEQ ID NO: 49 on the expression of ADAMTS5 was determined on a validated pool of passage 2 OA human articular chondrocytes (n=18) and compared to full-length recombinant BMP-7 (1 nM). Samples were harvested after 24 hours and analyzed for indicated genes by RT-qPCR (normalized for 28S rRNA expression and relative to control conditions (no peptide exposure)). In the graphs, numbers on the x-axis represent individual peptides according to their SEQ ID NO's, error bars represent mean±SEM, statistical differences were calculated (one-way ANOVA with bonferroni correction) to control condition. *=p<0.05 lower than control condition for ADAMTS5. Random peptide is a peptide according to SEQ ID NO: 49.
as §1, with “3:” for “2:”, “ALP” for “ADAMTS5”, “ALP.” for “ADAMTS5.”
as §1, with “4:” for “2:”, “BAPX1/NKX3.2” for “ADAMTS5”, “BAPX1/NKX3.2.” for “ADAMTS5.”
as §1, with “5:” for “2:”, “COL10A1” for “ADAMTS5”, “COL10A1.” for “ADAMTS5.”
FIG. 6: The action of 20-mer peptides (10 nM) of SEQ ID NO: 2-17 (peptides with 1 or 2 amino acids intervals (18-19 amino acid overlap)) and a random peptide with a sequence according to SEQ ID NO: 49 on the expression of IL-6 was determined on a validated pool of passage 2 OA human articular chondrocytes (n=18) and compared to full-length recombinant BMP-7 (1 nM). […]

[2] = test system: Cartilage explants; test: Safranin-O staining of glycosaminoglycans in cartilage explants; conditions: 10 nM, 14 days; explants from 2 patients; compared to control
Method: Cartilage explants obtained from 2 patients were cultured for 14 days in the presence of BMP-7 (1 nM) or BMP-7 mimicking peptide […] (SEQ ID NO: 13) at 10 nM. Glycosaminoglycans (GAGs), an important component of the extracellular matrix (ECM), were stained with Safranin-O (in red) and other tissues are counterstained with Fast green (in green/blue).

[3] = test system: Cartilage explants from OA patient's knee cartilage; test: PGE2 ELISA, cartilage explants; conditions: 10 nM, 14 days
Method: Cartilage explants of 3 mm^2 were taken from OA patient's knee cartilage (n=6) and treated with BMP-7 (1 nM), with peptide […] (SEQ ID NO: 13) at 10 nM or a scrambled irrelevant control peptide (10 nM) for 14 days. Prostaglandin E2 (PGE2) levels, a pro-hypertrophic factor, were determined via an ELISA.

[4] = test system: Synovial tissue samples from OA patients; test: PGE2 ELISA, synovial tissue samples; conditions: 10 nM, 24 h
Method: Synovial tissue samples from OA patients (n=6) were treated with BMP-7 (1 nM), with peptide […] (SEQ ID NO: 13) at 10 nM or a scrambled irrelevant control peptide (10 nM) for 24 h. PGE2 levels were determined via an ELISA.

[5] = test system: Hoffa's fat pad tissue samples from OA patients; test: PGE2 ELISA, Hoffa's fat pad tissue samples; conditions: 10 nM, 24 h
Method: Hoffa's fat pad tissue samples from OA patients (n=6) were treated with BMP-7 (1 nM) with peptide […] (SEQ ID NO: 13) at 10 nM or a scrambled irrelevant control peptide (10 nM) for 24 h. PGE2 levels were determined via an ELISA.

[6] = test system: Meniscus tissue samples from OA patients; test: PGE2 ELISA, meniscus tissue samples; conditions: 10 nM, 24 h
Method: Meniscus tissue samples from OA patients (n=6) were treated with BMP-7 (1 nM) with peptide peptide […] (SEQ ID NO: 13) at 10 nM or a scrambled irrelevant control peptide (10 nM) for 24 h. PGE2 levels were determined via an ELISA.

[7] = test system: Isolated chondrocytes from OA patients; test: Treatment of isolated chondrocytes from OA patients, gene expression by qRT-PCR; conditions: 1 nM, 24 h; qRT-PCR normalized for 28S rRNA; n=6
Method: Isolated chondrocytes from OA patients (n=6) were treated with BMP-7 (1 nM) or the 12-mer peptide according to SEQ ID NO: 43 (1 nM) for 24 h. Pro-chondrogenic (FIG. 8A) and hypertrophic (FIGS. 8B, 8C and 8D) gene expression was determined via qRT-PCR and normalized for 28S rRNA levels.

[8] = test system: cartilage explants from OA patient's knee articular cartilage; test: Treatment of cartilage explants, hypertrophic gene expression by qRT-PCR; conditions: 10 nM, 24 h
Method: 4 mm 2 cartilage explants were taken from non-lesion areas of OA patient's knee articular cartilage (n=5) and randomly assigned to different experimental treatment conditions (4 explants per treatment group). After a 24 h equilibration period the explants were treated with BMP-7 (1 nM) or the 12-mer peptide according to SEQ ID NO: 43 (10 nM) for 24 h. Hypertrophic gene expression was determined via qRT-PCR and normalized for 28S rRNA levels. After treatment with BMP-7 or the 12 mer we observed a downregulation of pro-hypertrophic genes, such as Col10a1 (FIG. 9A) and MMP13 (FIG. 9B).

“22 (DLGWQDWIIAPEGYAAYYCE; listed as Homo sapiens) [compound 22]” was tested, and the ADAMTS5 [1] was “—”, the ALP [1] was “—” and the BAPX1/NKX3.2 [1] was “—”. The COL10A [1] was “—”, the IL-6 [1] was “—” and the RUNX2 [1] was “—”.

In the case of “23 (CEGECAFPLNSYMNATNHAI; listed as Homo sapiens) [compound 23]”, the ADAMTS5 [1] is reported as “—”, the ALP [1] is reported as “—” and the BAPX1/NKX3.2 [1] is reported as “—”. The COL10A [1] was “—”, the IL-6 [1] was “—” and the RUNX2 [1] was “—”.

“24 (AIVQTLVHFINPETVPKPCC; listed as Homo sapiens) [compound 24]” was tested, and the ADAMTS5 [1] was “—”, the ALP [1] was “—” and the BAPX1/NKX3.2 [1] was “—”. For the same substance, the COL10A [1] was “—”, the IL-6 [1] was “—” and the RUNX2 [1] was “—”.

In the case of “25 (CCAPTQLNAISVLYFDDSSN; listed as Homo sapiens) [compound 25]”, the ADAMTS5 [1] is reported as “—”, the ALP [1] is reported as “—” and the BAPX1/NKX3.2 [1] is reported as “—”. The COL10A [1] was “—”, the IL-6 [1] was “—” and the RUNX2 [1] was “—”.

With “26 (SSNVILKKYRNMVVRACGCH; listed as Homo sapiens) [compound 26]” the ADAMTS5 [1] was “—”, the ALP [1] was “—” and the BAPX1/NKX3.2 [1] was “—”. For the same substance, the COL10A [1] was “—”, the IL-6 [1] was “—” and the RUNX2 [1] was “—”.

With “AISVLYFDDSSNVILKKYRN (listed as Homo sapiens) [SEQ ID NO: 12]” the “suppression of the OA chondrocyte phenotype” value (shortened to “suppression”) [1] was “efficiently suppressed the OA chondrocyte phenotype”.

“APTQLNAISVLYFDDSSNVI (listed as Homo sapiens) [SEQ ID NO: 9]” was tested, and the “suppression” value [1] was “efficiently suppressed the OA chondrocyte phenotype”.

In the case of “ETVPKPSSAPTQLNAISVLY (listed as Homo sapiens) [SEQ ID NO: 4]”, the “activity in the assays as employed herein (table 2)” value (“activity in the assays” for short) [1] is reported as “lost its activity”.

For “FDDSSNVILKKYRNMVVRAS (listed as Homo sapiens) [SEQ ID NO: 15]”, the “suppression” value [1] was “efficiently suppressed the OA chondrocyte phenotype”.

“FINPETVPKPSSAPTQLNAI (listed as Homo sapiens) [SEQ ID NO: 2]” was tested, and the “activity in the assays” value [1] was “lost its activity”.

For “KPSSAPTQLNAISVLYFDDS (listed as Homo sapiens) [SEQ ID NO: 7]”, the “suppression” value [1] was “efficiently suppressed the OA chondrocyte phenotype”.

“LNAISVLYFDDSSNVILKKY (listed as Homo sapiens) [SEQ ID NO: 11]” was tested, and the “suppression” value [1] was “efficiently suppressed the OA chondrocyte phenotype”.

With “LYFDDSSNVILKKYRNMVVR (listed as Homo sapiens) [SEQ ID NO: 14]” the “suppression” value [1] was “efficiently suppressed the OA chondrocyte phenotype”.

In the case of “NPETVPKPSSAPTQLNAISV (listed as Homo sapiens) [SEQ ID NO: 3]”, the “activity in the assays” value [1] is reported as “lost its activity”.

For “PKPSSAPTQLNAISVLYFDD (listed as Homo sapiens) [SEQ ID NO: 6]”, the “suppression” value [1] was “efficiently suppressed the OA chondrocyte phenotype”.

With “SSAPTQLNAISVLYFDDSSN (listed as Homo sapiens) [SEQ ID NO: 8]” the “suppression” value [1] was “efficiently suppressed the OA chondrocyte phenotype”.

With “SSNVILKKYRNMVVRASGSH (listed as Homo sapiens) [SEQ ID NO: 17]” the “suppression” value [1] was “efficiently suppressed the OA chondrocyte phenotype”.

With “SVLYFDDSSNVILKKYRNMV (listed as Homo sapiens) [SEQ ID NO: 13]” the “suppression” value [1] was “efficiently suppressed the OA chondrocyte phenotype”, the “Safranin-O intensity (glycosaminoglycans)” value [2] was “increased Safranin-O intensity” and the PGE2 levels [3] was “reduce PGE2 levels”. For the same substance, the PGE2 levels [4] was “reduce PGE2 levels”, the PGE2 levels [5] was “reduce PGE2 levels” and the PGE2 levels [6] was “reduce PGE2 levels”.

For “TQLNAISVLYFDDSSNVILK (listed as Homo sapiens) [SEQ ID NO: 10]”, the “suppression” value [1] was “efficiently suppressed the OA chondrocyte phenotype”.

“VPKPSSAPTQLNAISVLYFD (listed as Homo sapiens) [SEQ ID NO: 5]” was tested, and the “activity in the assays” value [1] was “lost its activity”.

With “YSEGESAFPLNS (listed as Homo sapiens) [SEQ ID NO: 43]” the “COL10A1 (pro-hypertrophic) gene expression” value [7] was “downregulation”, the “COX-2 (pro-hypertrophic) gene expression” value [7] was “downregulation” and the “Col2a1 (pro-chondrogenic) gene expression” value [7] was “upregulation”. For the same substance, the “RUNX2 (pro-hypertrophic) gene expression” value [7] was “downregulation”, the Col10a1 gene expression [8] was “downregulation” and the MMP13 gene expression [8] was “downregulation”.

— US11141462B2, “Method for the treatment or prevention of osteoarthritis” (Chondropeptix B.V., priority 2016, dated 2021)
